These results are taken from patent US20070191336A1 (priority 2003, published 2007).

SMILES strings stand for the structures.

One experiment deals with T1, phospho p-38 alpha kinase (Homo sapiens, UniProt Q16539).
T1 construct: purchased Panvera
T1 sequence (Q16539 whole entry): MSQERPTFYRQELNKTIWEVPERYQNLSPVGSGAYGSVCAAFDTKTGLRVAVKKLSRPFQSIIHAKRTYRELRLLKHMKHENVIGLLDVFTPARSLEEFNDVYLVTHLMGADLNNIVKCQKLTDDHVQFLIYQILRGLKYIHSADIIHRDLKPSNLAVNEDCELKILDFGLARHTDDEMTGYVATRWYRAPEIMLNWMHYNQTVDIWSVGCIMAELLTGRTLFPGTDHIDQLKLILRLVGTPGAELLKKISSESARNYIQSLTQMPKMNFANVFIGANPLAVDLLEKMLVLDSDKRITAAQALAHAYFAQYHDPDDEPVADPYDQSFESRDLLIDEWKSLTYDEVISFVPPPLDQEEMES
The experiment in a line: P-38 alpha kinase assay (spectrophotometric, pyruvate kinase/lactate dehydrogenase coupled). To be noted: Table 3; rates from […] to 2 h time frame. The experiment is classed as biochemical. The protocol: In this assay, the oxidation of NADH was continuously measured spectrophometrically. […] The reaction was initiated by adding ATP. The absorption at 340 nm was monitored continuously for up to 4 hours at 30° C. on Polarstar Optima plate reader (BMG). The kinase activity (reaction rate) was calculated from the slope at the time frame from 1.5 h to 2 h.
For inhibition determinations, test compounds were incubated with the reaction mixture for ˜5 min before adding ATP to start the reaction. […] IC50 values were calculated from a series of % inhibition values determined at a range of concentrations of each inhibitor using Prism to process the data and fit inhibition curves. Generally, the rates obtained at the time frame of 1.5 h to 2 h were used for these calculations.
What is called IC50 is the concentration at which inhibition is half-maximal. Regarding `CC(C)(C)c1cc(NC(=O)Nc2cccc(Cl)c2)n(-c2cccc(CCN)c2)n1` [Example 378, 1-{1-[3-(2-aminoethyl)phenyl]-3-t-butyl-1H-pyrazol-5-yl}-3-(3-chlorophenyl)urea], the half-inhibitory concentration (IC50) was found to be 400 nM.
Still for that read-out and setting: with `CC(C)(C)c1cc(NC(=O)Nc2cccc(C(F)(F)F)c2)n(-c2cccc(CN)c2)n1` [Example 387, 1-{1-[3-(aminomethyl)phenyl]-3-t-butyl-1H-pyrazol-5-yl}-3-(3-(trifluoro-methyl)phenyl)urea] the figure was 4450 nM.
The same measure, in the same setting: next, `CC(C)(C)c1cc(NC(=O)Nc2ccc(Cl)cc2)n(-c2cccc(C#N)c2)n1` [Example 358, 1-(3-t-butyl-1-(3-cyanophenyl)-1H-pyrazol-5-yl)-3-(4-chlorophenyl)urea]: 100 nM; `COc1cccc(-n2nc(C(C)(C)C)cc2NC(=O)Nc2ccc3c(c2)OCO3)c1` [Example 329, 1-(benzo[d][1,3]dioxo-5-yl)-3-(3-t-butyl-1-(3-methoxyphenyl)-1H-pyrazol-5-yl)urea]: 250 nM; `COc1cccc(-n2nc(C(C)(C)C)cc2NC(=O)Nc2ccc(Cl)cc2Cl)c1` [Example 318, 1-(3-t-butyl-1-(3-methoxyphenyl)-1H-pyrazol-5-yl)-3-(2,4-dichlorophenyl)urea]: 670 nM.
On to `COc1cccc(-n2nc(-c3ccccc3)cc2NC(=O)Nc2cccc(C(F)(F)F)c2)c1` [Example 333], for which half-maximal inhibition (IC50) required 2440 nM.
Still for that read-out and setting: next, `CN(C)CCc1cccc(-n2nc(C(C)(C)C)cc2NC(=O)Nc2ccc(Cl)cc2)c1` [Example 372, 1-{3-t-butyl-1-[3-(2-(dimethylamino)ethyl]phenyl}-1H-pyrazol-5-yl)-3-(4-chlorophenyl)urea]: 1460 nM.
In turn, `COc1cccc(NC(=O)Nc2cc(C(C)(C)C)nn2-c2cccc(C#N)c2)c1` [Example 360] showed an IC50 of 390 nM.
The same measure, in the same setting: with `COc1cccc(-n2nc(C(C)(C)C)cc2NC(=O)Nc2ccc([N+](=O)[O-])cc2)c1` [Example 321, 1-(3-t-butyl-1-(3-methoxyphenyl)-1H-pyrazol-5-yl)-3-(4-nitrophenyl)urea] the figure was 520 nM.
Molecule `COc1cccc(NC(=O)Nc2cc(C(C)(C)C)nn2-c2cccc(CO)c2)c1` [Example 409, 1-{3-t-butyl-1-[3-(hydroxymethyl)phenyl]-1H-pyrazol-5-yl}-3-(3-methoxyphenyl)urea] came in with an IC50 of 30.9 nM.
The same measure, in the same setting: with `CC(C)(C)c1cc(NC(=O)Nc2ccc3c(c2)OCO3)n(-c2cccc(CN)c2)n1` [Example 391, 1-{1-[3-(aminomethyl)phenyl]-3-t-butyl-1H-pyrazol-5-yl}-3-(benzo-[d][1,3]dioxol-5-yl)urea] the figure was 910 nM; with `CC(C)(C)c1cc(NC(=O)Nc2cccc(Cl)c2Cl)n(-c2ccc(C(=O)O)cc2)n1` [Example 468, 4-{3-t-butyl-5-[3-(2,3-dichlorophenyl)ureido]-1H-pyrazol-1-yl}benzoic acid], 8.6 nM; with `CN(C)C(=O)NCc1cccc(-n2nc(C(C)(C)C)cc2NC(=O)Nc2ccc(Cl)cc2)c1` [Example 491, 1-{3-t-butyl-1-[3-(3,3-dimethylureidomethyl)phenyl]-1H-pyrazol-5-yl}-3-(4-chlorophenyl)urea], 340 nM.
Still for that read-out and setting: with `COc1cccc(-n2nc(C(C)(C)C)cc2NC(=O)Nc2ccc(Cl)c(Cl)c2)c1` [Example 317, 1-(3-t-butyl-1-(3-methoxyphenyl)-1H-pyrazol-5-yl)-3-(3,4-dichlorophenyl)urea] the figure was 68 nM; with `CC(C)(C)c1cc(NC(=O)Nc2cccc(Cl)c2Cl)n(-c2ccc(C(C)(C)O)cc2)n1` [Example 467, 1-{3-t-butyl-1-[4-(2-hydroxypropan-2-yl)phenyl]-1H-pyrazol-5-yl}-3-(2,3-dichlorophenyl)urea], 119 nM; with `O=C(Nc1cccc(Cl)c1Cl)Nc1cc(-c2ccccc2)nn1-c1cccc(CO)c1` [Example 459, 1-{3-phenyl-1-[3-(hydroxymethyl)phenyl]-1H-pyrazol-5-yl}-3-(2,3-dichlorophenyl)urea], 20 nM.
Turning to `CCOC(=O)CCc1cccc(-n2nc(C(C)(C)C)cc2NC(=O)Nc2cccc(Cl)c2Cl)c1` [Example 364, 3-(3-{3-t-butyl-5-[3-(2,3-dichlorophenyl)ureido]-1H-pyrazol-1-yl}phenyl)propionic acid ethyl ester], half-maximal inhibition (IC50) was put at 10 nM.
Same read-out and setting: next, `CC(C)(C)c1cc(NC(=O)Nc2cccc(Cl)c2)n(-c2cccc(CO)c2)n1` [Example 406]: 13.4 nM; `O=C(Nc1cccc(Br)c1)Nc1cc(-c2ccccc2)nn1-c1cccc(CO)c1` [Example 456, 1-(3-bromophenyl)-3-{1-[3-(hydroxymethyl)phenyl]-3-phenyl-1H-pyrazol-5-yl}urea]: 40 nM.
Still for that read-out and setting: with `CC(C)(C)c1cc(NC(=O)Nc2cccc(Cl)c2Cl)n(-c2cccc(C#N)c2)n1` [Example 359] the figure was 13 nM; with `CC(C)(C)c1cc(NC(=O)Nc2cccc(Cl)c2)n(-c2cccc(C#N)c2)n1` [Example 385, 1-(3-t-butyl-1-(3-cyanophenyl)-1H-pyrazol-5-yl)-3-(3-chlorophenyl)urea], 30 nM.
The same measure, in the same setting: next, `CC(=O)N1CCc2ccc(-n3nc(C(C)(C)C)cc3NC(=O)Nc3cccc(Cl)c3Cl)cc2C1` [Example 512, 1-[1-(2-acetyl-1,2,3,4-tetrahydroisoquinolin-7-yl)-3-t-butyl-1H-pyrazol-5-yl]-3-(2,3-dichlorophenyl)urea]: 32 nM.
`CC(C)(C)c1cc(NC(=O)Nc2ccc(Cl)cc2)n(-c2cccc(Cn3c(=O)[nH]n(-c4ccccc4)c3=O)c2)n1` [Example 495, 1-(3-t-butyl-1-{3-[(3,5-dioxo-1-phenyl-1,2,4-triazolidin-4-yl)methyl]phenyl}-1H-pyrazol-5-yl)-3-(4-chlorophenyl)urea] returned an IC50 of 250 nM.

Still in this experiment, the particulars now being: read-out: % Inhibition @ concentration, Table 3; at 0.1 uM.
As to `COc1ccc(-n2nc(C(C)(C)C)cc2NC(=O)Nc2cccc(F)c2F)cc1` [Example 415, 1-[3-t-butyl-1-(4-methoxyphenyl)-1H-pyrazol-5-yl]-3-(2,3-difluorophenyl)urea], the inhibition at 0.1 µM was found to be 28%.
On the same count and under the same terms, next, `CCOC(=O)CCc1cccc(-n2nc(C(C)C)cc2NC(=O)Nc2ccc(Cl)cc2)c1` [Example 416, ethyl 3-(3-(5-(3-(4-chlorophenyl)ureido)-3-isopropyl-1H-pyrazol-1-yl)phenyl)propanoate]: 67%.
The same measure, in the same setting: with `CC(C)(C)c1cc(NC(=O)Nc2ccc3c(c2)OCO3)n(-c2cccc(CCN)c2)n1` [Example 404, 1-{1-[3-(2-aminoethyl)phenyl]-3-t-butyl-1H-pyrazol-5-yl}-3-(benzo[d][1,3]dioxol-5-yl)urea] the figure was -11%; with `CC(C)(C)c1cc(NC(=O)Nc2cccc(Cl)c2Cl)n(-c2cccc(C(N)=O)c2)n1` [Example 392, 1-[3-t-butyl-1-(3-carbamoylphenyl)-1H-pyrazol-5-yl]-3-(2,3-dichlorophenyl)urea], 75%.
Still for that read-out and setting: next, `COc1ccc(-n2nc(C(C)(C)C)cc2NC(=O)Nc2cccc(C(F)(F)F)c2)cc1` [Example 347, 1-[3-t-butyl-1-(4-methoxyphenyl)-1H-pyrazol-5-yl]-3-(3-trifluoromethylphenyl)urea]: 8%.

The same experiment, now with this note: read-out: % Inhibition @ concentration, Table 3; at 1 uM.
Regarding `COc1ccc(-n2nc(C(C)(C)C)cc2NC(=O)Nc2cccc(F)c2F)cc1` [Example 415, 1-[3-t-butyl-1-(4-methoxyphenyl)-1H-pyrazol-5-yl]-3-(2,3-difluorophenyl)urea], the inhibition at 1 µM is 69%.
Regarding `CCOC(=O)CCc1cccc(-n2nc(C(C)C)cc2NC(=O)Nc2ccc(Cl)cc2)c1` [Example 416, ethyl 3-(3-(5-(3-(4-chlorophenyl)ureido)-3-isopropyl-1H-pyrazol-1-yl)phenyl)propanoate], the inhibition at 1 µM was 83%.
Same read-out and setting: next, `COc1cccc(-n2nc(C(C)(C)C)cc2NC(=O)Nc2ccc(N(C)C)cc2)c1` [Example 323, 1-(3-t-butyl-1-(3-methoxyphenyl)-1H-pyrazol-5-yl)-3-(4-(dimethylamino)phenyl)urea]: 9%.
Same read-out and setting: next, `CC(C)(C)c1cc(NC(=O)Nc2ccc3c(c2)OCO3)n(-c2cccc(CCN)c2)n1` [Example 404, 1-{1-[3-(2-aminoethyl)phenyl]-3-t-butyl-1H-pyrazol-5-yl}-3-(benzo[d][1,3]dioxol-5-yl)urea]: 48%; `CC(C)(C)c1cc(NC(=O)Nc2cccc(Cl)c2Cl)n(-c2cccc(C(N)=O)c2)n1` [Example 392, 1-[3-t-butyl-1-(3-carbamoylphenyl)-1H-pyrazol-5-yl]-3-(2,3-dichlorophenyl)urea]: 86%.
The same measure, in the same setting: next, `COc1ccc(-n2nc(C(C)(C)C)cc2NC(=O)Nc2cccc(C(F)(F)F)c2)cc1` [Example 347, 1-[3-t-butyl-1-(4-methoxyphenyl)-1H-pyrazol-5-yl]-3-(3-trifluoromethylphenyl)urea]: 31%.

The experiment is the same for the next values; noted with them: read-out: % Inhibition @ concentration, Table 3; at 10 uM.
Turning to `COc1cccc(-n2nc(C(C)(C)C)cc2NC(=O)Nc2ccc(N(C)C)cc2)c1` [Example 323, 1-(3-t-butyl-1-(3-methoxyphenyl)-1H-pyrazol-5-yl)-3-(4-(dimethylamino)phenyl)urea], the inhibition at 10 µM was determined as 51%.
Still for that read-out and setting: next, `COc1cccc(-n2nc(C(C)(C)C)cc2NC(=O)Nc2cccc(C#N)c2)c1` [Example 325, 1-(3-t-butyl-1-(3-methoxyphenyl)-1H-pyrazol-5-yl)-3-(3-cyanophenyl)urea]: 54%; `CC(C)(C)c1cc(NC(=O)c2ccc3ccccc3c2)n(-c2cccc(CCC(=O)O)c2)n1` [Example 155]: 58%.
Regarding `COc1cccc(-n2nc(-c3ccccc3)cc2NC(=O)Nc2cccc(Cl)c2)c1` [Example 331], the inhibition at 10 µM was 71%.
On the same count and under the same terms, next, `COc1cccc(NC(=O)Nc2cc(C(C)(C)C)nn2-c2cccc(OC)c2)c1` [Example 326, 1-(3-t-butyl-1-(3-methoxyphenyl)-1H-pyrazol-5-yl)-3-(3-methoxyphenyl)urea]: 41%.

The same experiment, now with this note: read-out: % inhibition @ concentration, Table 2; at 10 uM.
Regarding `CC1(C(=O)NCc2cccc(-n3nc(C(C)(C)C)cc3NC(=O)Nc3ccc(Cl)cc3)c2)CC2(C)CC(C)(C1)C(=O)NC2=O` (stereo not drawn) [Example 10, 1,5,7-trimethyl-2,4-dioxo-3-aza-bicyclo[3.3.1]nonane-7-carboxylic acid 3-{3-t-butyl-5-[3-(4-chloro-phenyl)-ureido]-pyrazol-1-yl}benzylamide], the inhibition at 10 µM stood at 83%.
On the same count and under the same terms, with `CC(C)(C)c1cc(NC(=O)Nc2cccc3ccccc23)n(-c2cccc(C(=O)N3C(=O)OC[C@@H]3c3ccccc3)c2)n1` [Example 18, L-1-{5-tert-butyl-2-[3-(2-oxo-4-phenyl-oxazolidinyl-3-carbonyl)phenyl]-2H-pyrazol-3-yl}-3-(naphthalen-1-yl)urea] the figure was 60%; with `CC(C)(C)c1cc(NC(=O)Nc2cccc3ccccc23)n(-c2cccc(C(=O)N3C(=O)OC[C@H]3c3ccccc3)c2)n1` [Example 17, D-1-{5-tert-butyl-2-[3-(2-oxo-4-phenyl-oxazolidinyl-3-carbonyl)phenyl]-2H-pyrazol-3-yl}-3-(naphthalen-1-yl)urea], 40%.
